One series relates to PBMC cultures. The settings on record: 72 hr, 1 mM, FIG. 15.
Series [1] relates to macrophages in PBMC cultures. As to the kind of experiment: Phagocytosis of microspheres opsonized with anti-HIV antibodies. The series is classed as cell-based, human. Here is the method: The ability of the peptide constructs to stimulate phagocytosis was assessed in two experiments. In the first experiment, a biotin-tagged peptide epitope of a surface protein of HIV-1 was bound to streptvidin on the surface of the beads. An antibody preparation that was raised against this epitope was then bound to the HIV peptide. The beads were then washed and presented to peripheral blood mononuclear cell (PBMC) cultures pretreated with peptides. […] In multiple control cultures, the number of beads within a macrophage-like cell ranged from 0 to 3. […] In the treated cultures, greater than 20 beads were counted in each phagocytic cell. After several subsequent and similar experiments were conducted, a phagocytic index was developed for the activity of macrophages to ingest microspheres opsonized with anti-HIV antibodies (TABLE 1).

Series [2] deals with HIV-1 clade B (Strain SF162) and clade C (Strain 97ZA009). As to the kind of experiment: Inhibition of HIV replication (neutralization) in PBMCs, p24 immunoassay. The series is classed as cell-based. Conditions: 10 nM, FIGS. 13A-B. Here is the method: The ability of the peptides to inhibit replication of HIV, both alone and in combination with antibodies, was tested as follows. Approximately 3 million cells of frozen human PBMCs, obtained from the California Blood Bank system, were thawed at 37° C. and transferred to a 50 mL conical tube where 8 mL of wash medium were added slowly. Then an additional 8 mL of wash medium were added and swirled to mix. The cells were then centrifuged at 330 g for 10 min, the supernatant was removed and the pellet was resuspended in 10 mL wash medium and centrifuged as above. The washed cells were then resuspended in RPMI-B medium containing 10% FBS, phytohemagglutin was added to 5 μg/mL, and cells were incubated at 37° C. for 24 hr in humidified 5% CO2. Cells were washed, suspended to about 6 million cells per mL, and 50 μL, (about 250,000 viable cells) were added to each test well. Then 100 ↑L of the test peptide were added at a concentration sufficient to provide the desired final concentration, followed by 100 μL of virus suspension (100 median tissue culture infective doses (TCID50s)). The assay plate was incubated 3 days at 37° C., then washed 3 times to remove unbound virus, and the cells were again suspended to 250 μL of medium. After an additional 24 hr of incubation, cells were lysed with Triton X-100 and each sample was assayed by an enzyme-linked immunoassay for virus protein p24 to quantify neutralization of virus. In another set of samples, antibody preparations were also added at a desired concentration (i.e., in addition to peptide).
This peptide construct was assayed for activity with two strains of HIV, clade B (Strain SF162) and clade C (Strain 97ZA009), both of which were provided by the California Department of Public Health (Richmond, Calif.). HIV-1 clade B is the major strain in North America and HIV-1 clade C is the major strain in central and southern Africa, India and China. The peptide was assayed either alone (−) or in combination with serum from HIV-infected individuals (+), as outlined below in TABLE 3.
(SEQ ID NO:7). The short bars represent neutralization by peptide alone. The long bars represent neutralization when pooled serum from HIV-positive patients was added along with the peptide. The bars represent averages from two experiments, each performed in quadruplicate. In one set of experiments, each peptide was assayed at 10 nM for the ability to inhibit replication. In the absence of peptide, the antibody preparation (serum) provided only about 30% neutralization (inhibition), at the same dilution (data not shown).

For another series, the system named is PBMCs. As to the kind of experiment: Induction of cytokine release from PBMCs (membrane antibody array). The series is classed as cell-based, human. Conditions: PBMC medium, 4 hr, 100 nM peptide; for Relative concentration of IL-21: IFN-γ printed in place of LPS. Here is the method:
To determine whether inhibition of HIV replication by the peptide may be the result of induction of release of cytokines, cultured PBMCs were treated with one peptide embodiment of the present invention and, after 4 hr incubation, the medium was collected and assayed for changes in the amounts of 40 different cytokines. […] Approximately 3 million cells of frozen human PBMCs were thawed at 37° C. and transferred to a 50 mL conical tube where 8 mL of wash medium were added slowly. Then an additional 8 mL of wash medium were added and swirled to mix. The cells were then centrifuged at 330 g for 10 min, the supernatant was removed and the pellet was resuspended in 10 mL wash medium and centrifuged as above. The washed cells were then resuspended in RPMI-1640 medium containing 10% FBS to about 6 million cells per mL and 100 μL of the suspension were added into each well of a 96-well microtiter plate and incubated overnight at 37° C. in humidified 5% CO2. After 24 hr the medium was replaced with 200 μL fresh RPMI-1640 medium containing 10% FBS and incubated at 37° C. in humidified 5% CO2 for 2 days. For the data shown in TABLE 4, the peptide aliquot was then added to samples in duplicate at a final concentration of 100 nM and incubated at 37° C. in humidified 5% CO2 for 4 hr. For other experiments (data not included), the incubation was continued for 24 hr. The medium was then removed and stored at −80° C. The samples were analyzed for production of cytokines One set of control cells was not treated with an experimental agent.
Culture medium was removed for assay of cytokine levels with methods developed by RayBiotech, Inc. (Norcross, Ga.). In this technology, membrane arrays of antibodies against cytokines were incubated with samples of media. After washing, the array was incubated with a cocktail of all antibodies tagged with biotin. The membrane was then washed free of unbound antibodies and incubated with streptavidin labeled with a fluorescent dye. After a final wash, the membrane arrays were read in a fluorescence detector.

Series [3] concerns peripheral blood mononuclear cells. As to the kind of experiment: Phagocytosis of opsonized microspheres by peptide-treated PBMCs (second experiment). In kind it is cell-based, human. Conditions: 50 nM peptide construct; interferon-gamma 100 ng/mL. The procedure:
In a second experiment, streptavidin-coated microspheres, dyed with Dragon Green (0.97 μm diameter, Bangs Laboratories, Inc., Fishers, Ind.) were opsonized with rabbit anti-streptavidin serum (Sigma-Aldrich) and washed with phosphate buffered saline, pH 7.4 (PBS). Human PBMCs were cultured in microtiter plates in RPMI-1640 medium containing 10% fetal bovine serum (FBS) and 1:100 dilution of penicillin-streptomycin solution (Mediatech, Inc., Herndon, Va.) Cultures were washed to remove non-adherent cells, and fresh medium containing FBS, antibiotics, and 50 nM peptide was added to adherent cells for an additional 20 to 24 h. Microspheres were added at approximately a 10:1 ratio to total cells, and after an additional 30 to 60 min of incubation, a solution containing 2% formalin was added. […]
FIGS. 9A-I illustrate phagocytosis of opsonized microspheres by peptide-treated PBMCs. […] The experiment was quantified by counting the number of beads in the phagocytic cells (TABLE 2).
In order to establish that the bead-like material within the cells was indeed engulfed beads, fluorescence was examined. […] Cells were examined by both phase contrast microscopy (left panels) and fluorescence microscopy with blue excitation light (right panels). […]

Series [4] has as its system lectins (HP, GS, WGA, DB, UEA1, SNA1, MAA, concanavalin A). Put plainly: Lectin binding, panel of lectins (valency and specificity). The settings on record: seven lectins, equal number of HPSLK sequences per well, FIG. 4. From the text:
Each assay used the same basic procedure.
FIG. 6 illustrates the specificity with which the quadravalent peptide constructs bind to different lectins.

Where a SMILES comes first, the peptide text is derived from it.

For the molecule `CC(C)C[C@H](NC(=O)[C@H](CO)NC(=O)[C@@H]1CCCN1C(=O)[C@@H](N)Cc1c[nH]cn1)C(=O)N[C@@H](CCCCN)C(=O)NCC(=O)NCC(=O)NCC(=O)N[C@@H](CO)C(=O)NCCCC[C@H](NC(=O)[C@H](CO)NC(=O)CNC(=O)CNC(=O)CNC(=O)[C@H](CCCCN)NC(=O)[C@H](CC(C)C)NC(=O)[C@H](CO)NC(=O)[C@@H]1CCCN1C(=O)[C@@H](N)Cc1c[nH]cn1)C(=O)NCCCC[C@H](NC(=O)[C@H](CCCCNC(=O)[C@H](CO)NC(=O)CNC(=O)CNC(=O)CNC(=O)[C@H](CCCCN)NC(=O)[C@H](CC(C)C)NC(=O)[C@H](CO)NC(=O)[C@@H]1CCCN1C(=O)[C@@H](N)Cc1c[nH]cn1)NC(=O)[C@H](CO)NC(=O)CNC(=O)CNC(=O)CNC(=O)[C@H](CCCCN)NC(=O)[C@H](CC(C)C)NC(=O)[C@H](CO)NC(=O)[C@@H]1CCCN1C(=O)[C@@H](N)Cc1c[nH]cn1)C(N)=O` [HPSLK] (HELM PEPTIDE1{H.P.S.L.K.G.G.G.S.K.K.[am]}|PEPTIDE2{H.P.S.L.K.G.G.G.S.K}|PEPTIDE3{H.P.S.L.K.G.G.G.S}|PEPTIDE4{H.P.S.L.K.G.G.G.S}$PEPTIDE1,PEPTIDE4,10:R3-9:R2|PEPTIDE1,PEPTIDE2,11:R3-10:R2|PEPTIDE2,PEPTIDE3,10:R3-9:R2$$$V2.0), in the series with PBMC cultures, the “viability of cells in PBMC cultures” value is recorded as “partially reduced viability”.

As for “PSSNA: peptide construct containing four copies of the core sequence PSSNA”, in series [1], the “Phagocytosis Index” value is given as “+++ (+++ = 15)”. For the same molecule, in series [2], the “inhibitory activity when assayed alone” value is recorded as “substantial inhibitory activity” and the “level of inhibition with antibodies added” value is on record as “enhanced by adding antibodies”. Moreover, in the series on PBMCs, the “Relative concentration of IL-4” value is recorded as 60 arbitrary units, the “Relative concentration of IL-8” value stood at 702 arbitrary units, the “Relative concentration of IL-12p40” value came to 28 arbitrary units and the “Relative concentration of IL-12p70” value is listed as 69 arbitrary units. In the series with PBMCs, the “Relative concentration of IL-15” value is 153 arbitrary units, the “Relative concentration of IL-16” value was found to be 12 arbitrary units, the “Relative concentration of IL-17” value stood at 21 arbitrary units and the “Relative concentration of TNF-α” value is on record as 123 arbitrary units. In the series on PBMCs, the “Relative concentration of sTNF RII” value worked out at 21 arbitrary units and the “Relative concentration of IL-21” value is 130 arbitrary units.

On to “VGGGS: peptide construct containing four copies of the core sequence VGGGS”, for which, in series [1], the “Phagocytosis Index” value is reported as “+++ (+++ = 15)”. In addition, in series [2], the “inhibitory activity when assayed alone” value is given as “substantial inhibitory activity” and the “level of inhibition with antibodies added” value was “enhanced by adding antibodies”. For the same molecule, in the series with PBMCs, the “Relative concentration of ICAM-1” value amounted to 89 arbitrary units, the “Relative concentration of IL-1α” value was 291 arbitrary units, the “Relative concentration of IL-2” value stood at 125 arbitrary units and the “Relative concentration of IL-12p40” value is 51 arbitrary units. In addition, in the series with PBMCs, the “Relative concentration of IL-15” value is reported as 130 arbitrary units, the “Relative concentration of IL-16” value is recorded as 10 arbitrary units, the “Relative concentration of IL-17” value came to 24 arbitrary units and the “Relative concentration of IP-10” value amounted to 321 arbitrary units. Besides, in the series with PBMCs, the “Relative concentration of RANTES” value is reported as 213 arbitrary units, the “Relative concentration of TIMP-2” value was determined as 205 arbitrary units, the “Relative concentration of TNF-β” value turned out to be 111 arbitrary units and the “Relative concentration of sTNF RII” value worked out at 26 arbitrary units.

With “VSNQH: peptide construct containing four copies of an inactive core sequence VSNQH, negative control (VNSQH) [reference compound]”, the “Beads/cell (mean ± SD)” value in series [3] amounted to 1.3 ± 1.8.

On to “single sequence: peptide with 1 arm containing the core sequence HPSLK”, for which, in series [4], the “binding relative to the quadravalent peptide (set as 100%)” value is recorded as “much lesser extent”.

B1: Interferon-gamma: interferon-gamma, positive control (protein, UniProt P01579 24-161, looked up)
Interferon gamma: QDPYVKEAENLKKYFNAGHSDVADNGTLFLGILKNWKEESDRKIMQSQIVSFYFKLFKNFKDDQSIQKSVETIKEDMNVKFFNSNKKKRDDFEKLTNYSVTDLNVQRKAIHELIQVMAELSPAAKTGKRKRSQMLFRG
For the molecule B1, in series [3], the “Beads/cell (mean ± SD)” value is 35.8 ± 12.6. For the same molecule, the “Phagocytosis Index” value in series [1] is on record as “+++ (+++ = 15)”. Moreover, the “Relative concentration of IL-21” value in the series with PBMCs is given as “(IFN-γ: 100) arbitrary units”.

For the origin of these results see patent US8496942B2, “Therapeutic peptides and uses thereof” (priority 2006, dated 2013).
